40 molecules from patent publication US6586441B2, “Adenosine receptor ligands and their use in the treatment of disease” (Hoffman-La Roche Inc., priority 2000, dated 2003) can be followed below.

In the first assay the target is T1, human adenosine A2A receptor (Homo sapiens, UniProt P29274).
T1 construct: expressed in transfected cells; host or cells: CHO cells, semliki forest virus expression system; membrane preparation
T1 sequence (P29274 whole entry): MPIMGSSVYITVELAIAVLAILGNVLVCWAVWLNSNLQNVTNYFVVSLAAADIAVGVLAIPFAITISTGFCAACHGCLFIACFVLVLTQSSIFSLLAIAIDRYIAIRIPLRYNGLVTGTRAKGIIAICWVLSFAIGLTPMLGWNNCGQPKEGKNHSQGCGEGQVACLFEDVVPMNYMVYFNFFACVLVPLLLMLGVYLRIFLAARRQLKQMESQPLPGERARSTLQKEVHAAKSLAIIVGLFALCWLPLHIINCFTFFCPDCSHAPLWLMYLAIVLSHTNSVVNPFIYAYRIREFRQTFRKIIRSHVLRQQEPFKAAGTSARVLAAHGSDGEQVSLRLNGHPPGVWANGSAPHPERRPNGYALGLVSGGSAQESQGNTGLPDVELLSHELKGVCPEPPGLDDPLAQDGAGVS
Kind of assay: Human adenosine A2A receptor [3H]-SCH-58261 binding assay. To be noted: human A2a receptor, membranes of CHO cells, [3H]-SCH-58261. As to the method: The gene encoding human adenosine A2A receptor was recombinantly introduced and expressed in chinese hamster ovary (CHO) cells using the semliki forest virus expression system. Cells were harvested, washed twice by centrifugation, homogenised and again washed by centrifugation. The final washed membrane pellet was suspended in a Tris (50 mM) buffer containing 120 mM NaCl, 5 mM KCl, 2 mM CaCl2 and 10 mM MgCl2 (pH 7.4) (buffer A). The [^3H]-SCH-58261 (Dionisotti et al., 1997, Br. J. Pharmacol. 121, 353; 1 nM) binding assay was carried out in 96-well plates in the presence of 2.5 μg of membrane protein, 0.5 mg of Ysi-poly-1-lysine SPA beads and 0.1 U adenosine deaminase in a final volume of 200 μl of buffer A. Non-specific binding was defined using xanthine amine congener (XAC; […]). Compounds were tested at 10 concentrations from 10 μM-0.3 nM. All assays were conducted in duplicate and repeated at least two times. Assay plates were incubated for 1 hour at room temperature before centrifugation and then bound ligand determined using a Packard Topcount scintillation counter. IC50 values were calculated using a non-linear curve fitting program and Ki values calculated using the Cheng-Prussoff equation.
Regarding `N#Cc1c(NCc2ccccc2Br)nc(N)nc1-c1ccc(Br)o1` [Example 512, 2-Amino-4-(2-bromo-benzylamino)-6-(5-bromo-furan-2-yl)-pyrimidine-5-carbonitrile], the “pKi (affinity to the human A2a receptor)” value amounted to 8.88.

`Cc1cnc(COc2nc(N)nc(-c3ccc(C)o3)c2C#N)c(C)c1` [Example 466, 2-Amino-4-(3,5-dimethyl-pyridin-2-ylmethoxy)-6-(5-methyl-furan-2-yl)-pyrimidine-5′-carbonitrile]: the “pKi (affinity to the human A2a receptor)” value was 8.97.

Still in this assay, the particulars now being: human A2a receptor, membranes of CHO cells, [3H]-SCH-58261; read-out: pKi (affinity to the human A2a receptor) (converted).
As to `N#Cc1c(NCCc2ccc(O)cc2)nc(N)nc1-c1ccco1` [Example 58, 2-Amino-4-furan-2-yl-6-[2-(4-hydroxy-phenyl)-ethylamino]-pyrimidine-5-carbonitrile], the Ki was 6.46 nM.

Regarding `Cc1ccnc(COc2nc(N)nc(-c3ccco3)c2C#N)c1` [Example 373, 2-Amino-4-furan-2-yl-6-(4-methyl-pyridin-2-yl-methoxy)-pyrimidine-5-carbonitrile], the Ki is 5.13 nM.

In the case of `Cc1cccc(COc2nc(N)nc(-c3ccc(C)o3)c2C#N)n1` [Example 246, 2-Amino-4-(5-methyl-furan-2-yl)-6-(6-methyl-pyridin-2-ylmethoxy)-pyrimidine-5-carbonitrile], the Ki is 1.86 nM.

As to `Nc1nc(OCCc2ccccc2)c(Cl)c(-c2ccco2)n1` [Example 322, 5-Chloro-4-furan-2-yl-6-phenethyloxy-pyrimidin-2-yl-amine], the Ki is 9.77 nM.

For the molecule `Nc1nc(SCCc2ccccn2)c(I)c(-c2ccco2)n1` [Example 352, 4-Furan-2-yl-5-iodo-6-(2-pyridin-2-yl-ethylsulfanyl)-pyrimidin-2-yl-amine], the Ki was 5.13 nM.

`COc1ccc(CCNc2nc(N)nc(-c3ccco3)c2C#N)cc1` [Example 144, 2-Amino-4-furan-2-yl-6-[2-(4-methoxy-phenyl)-ethylamino]-pyrimidine-5-carbonitrile]: the Ki was 2.82 nM.

Consider `N#Cc1c(-c2ccco2)nc(N)nc1N1CCc2ccccc2C1` [Example 336, 2-Amino-4-(3,4-dihydro-1H-isoquinolin-2-yl)-6-furan-2-yl-pyrimidine-5-carbonitrile], for which the Ki is 8.13 nM.

For `Cc1coc(-c2nc(N)nc(SCCc3ccccn3)c2C#N)c1` [Example 422, 2-Amino-4-(4-methyl-furan-2-yl)-6-(2-pyridin-2-yl-ethylsulfanyl)-pyrimidine-5-carbonitrile], the Ki was 1.35 nM.

With `N#Cc1nc(N)nc(-c2ccco2)c1C#N` [Example 94, 2-Amino-6-furan-2-yl-pyrimidine-4,5-dicarbonitrile], the Ki is 9.77 nM.

Take `Cc1cnc(COc2nc(N)nc(-c3ccco3)c2C#N)c(C)c1` [Example 401, 2-Amino-4-(3,5-dimethyl-pyridin-2-ylmethoxy)-6-furan-2-yl-pyrimidine-5-carbonitrile]: the Ki was 0.692 nM.

For `N#Cc1c(SCCc2ccccn2)cc(N)nc1-c1ccco1` [Example 356, 6-Amino-2-furan-2-yl-4-(2-pyridin-2-yl-ethylsulfanyl)-nicotinonitrile], the Ki was 0.912 nM.

For `N#Cc1c(OCCc2ccccc2)nc(N)nc1-c1ccco1` [Example 53, 2-Amino-4-furan-2-yl-6-phenethyloxy-pyrimidine-5-carbonitrile], the Ki was 6.31 nM.

Take `Cc1ccc(COc2nc(N)nc(-c3ccc(Cl)o3)c2C#N)nc1` [Example 531, 2-Amino-4-(5-chloro-furan-2-yl)-6-(5-methyl-pyridin-2-yl-methoxy)-pyrimidine-5-carbonitrile]: the Ki is 5.62 nM.

Turning to `N#Cc1c(SCCc2ccccn2)nc(N)nc1-c1ccc(C(F)F)o1` [Example 538, 2-Amino-4-(5-difluoromethyl-furan-2-yl)-6-(2-pyridin-2-yl-ethylsulfanyl)-pyrimidine-5-carbonitrile], the Ki is 1.95 nM.

On to `N#Cc1c(NCc2ccccc2N)nc(N)nc1-c1ccco1` [Example 304, 2-Amino-4-(2-amino-benzylamino)-6-furan-2-yl-pyrimidine-5-carbonitrile], for which the Ki is 3.55 nM.

In the case of `N#Cc1c(OCCNc2ccccc2)nc(N)nc1-c1ccco1` [Example 231, 2-Amino-4-furan-2-yl-6-(2-1-phenylamino-ethoxy)-pyrimidine-5-carbonitrile], the Ki was 8.13 nM.

On to `N#Cc1c(OCCc2ccccn2)cc(N)nc1-c1ccco1` [Example 384, 6-Amino-2-furan-2-yl-4-(2-pyridin-2-yl-ethoxy)-nicotinonitrile], for which the Ki was 3.02 nM.

On to `Cc1coc(-c2nc(N)nc(OCCc3ccccn3)c2C#N)c1` [Example 423, 2-Amino-4-(4-methyl-furan-2-yl)-6-(2-pyridin-2-yl-ethoxy)-pyrimidine-5-carbonitrile], for which the Ki was 3.02 nM.

Turning to `N#Cc1c(SCCCc2ccccc2)nc(N)nc1-c1ccccc1` [Example 85, 2-Amino-4-phenyl-6-(3-phenyl-propylsulfanyl)-pyrimidine-5-carbonitrile], the Ki was 7.94 nM.

`N#Cc1c(OCCc2ccccn2)nc(N)nc1-c1ccc(Cl)o1` [Example 525, 2-Amino-4-(5-chloro-furan-2-yl)-6-(2-pyridin-2-yl-ethoxy)-pyrimidine-5-carbonitrile]: the Ki was 0.871 nM.

`CC(C)Oc1nc(N)nc(-c2ccco2)c1C#N` [Example 61, 2-Amino-4-furan-2-yl-6-isopropoxy-pyrimidine-5-carbonitrile]: the Ki is 6.92 nM.

`Cc1cccc(CNc2nc(N)nc(-c3ccco3)c2C#N)c1` [Example 289, 2-Amino-4-furan-2-yl-6-(3-methyl-benzylamino)-pyrimidine-5-carbonitrile]: the Ki is 3.72 nM.

Regarding `N#Cc1c(-c2ccco2)nc(N)nc1N1CCCCC1` [Example 41, 2-Amino-4-furan-2-yl-6-piperidin-1-yl-pyrimidine-5-carbonitrile], the Ki was 8.51 nM.

With `N#Cc1c(SCCc2ccccn2)nc(N)nc1-c1cc(Br)co1` [Example 521, 2-Amino-4-(4-bromo-furan-2-yl)-6-(2-pyridin-2-yl-ethylsulfanyl)-pyrimidine-5-carbonitrile], the Ki was 1.17 nM.

With `CCCCSc1nc(N)nc(-c2ccco2)c1C#N` [Example 60, 2-Amino-4-butylsulfanyl-6-furan-2-yl-pyrimidine-5-carbonitrile], the Ki was 4.57 nM.

Regarding `Cc1ccc(CNc2nc(N)nc(-c3ccco3)c2C#N)cc1C` [Example 347, 2-Amino-4-(3,4-dimethyl-benzylamino)-6-furan-2-yl-pyrimidine-5-carbonitrile], the Ki was 1.66 nM.

Turning to `N#Cc1c(N)nc(SCc2ccccc2)c(C#N)c1-c1cccs1` [Example 389, 2-Amino-6-benzylsulfanyl-4-thiophen-2-yl-pyridine-3.5-dicarbonitrile], the Ki was 8.32 nM.

`N#Cc1c(OCc2ccccn2)cc(N)nc1-c1ccco1` [Example 355, 6-Amino-2-furan-2-yl-4-(pyridin-2-yl-methoxy)-nicotinonitrile]: the Ki was 3.02 nM.

For `Cc1ccc(COc2nc(N)nc(-c3ccco3)c2C#N)nc1` [Example 362, 2-Amino-4-furan-2-yl-6-(5-methyl-pyridin-2-yl-methoxy)-pyrimidine-5-carbonitrile], the Ki was 2.63 nM.

As for `N#Cc1c(NCc2ccc3c(c2)OCO3)nc(N)nc1-c1ccco1` [Example 337, 2-Amino-4-[(benzo [1,3]dioxol-5-ylmethyl)-amino]-6-furan-2-yl-pyrimidine-5-carbonitrile], the Ki was 6.61 nM.

On to `Nc1nc(OCc2ccccn2)c(Br)c(-c2ccco2)n1` [Example 168, 5-Bromo-4-furan-2-yl-6-(pyridin-2-ylmethoxy)-pyrimidin-2-yl-amine], for which the Ki was 9.33 nM.

Regarding `N#CCc1ccc(-c2nc(N)nc(SCCc3ccccn3)c2C#N)o1` [Example 524, 2-Amino-4-(5-cyanomethyl-fran-2-yl)-6-(2-pyridin-2:yl-ethylsulfanyl)-pyrimidine-5-carbonitrile], the Ki was 5.75 nM.

Regarding `N#Cc1c(SCCc2ccccn2)nc(N)nc1-c1ccco1` [Example 313, 2-Amino-4-furan-2—,yl-6-(2-pyridin-2-yl-ethylsulfanyl)-pyrimidine-5-carbonitrile], the Ki is 0.832 nM.

Consider `N#Cc1c(NCCCc2ccccc2)nc(N)nc1-c1ccco1` [Example 44, 2-Amino-4-furan-2-yl-6-(3-phenyl-propylamino)-pyrimidine-5-carbonitrile], for which the Ki is 2.51 nM.

In the case of `Cc1cccnc1COc1cc(N)nc(-c2ccco2)c1C#N` [Example 383, 6-Amino-2-furan-2-yl-4-(3-methyl-pyridin-2-yl-methoxy)-nicotinonitrile], the Ki is 1.91 nM.

On to `Nc1nc(OCCCc2ccccc2)c(Cl)c(-c2ccco2)n1` [Example 321, 5-Chloro-4-furan-2-yl-6-(3-phenyl-propoxy)-pyrimidin-2-yl-amine], for which the Ki is 2.82 nM.

Take `N#Cc1c(NCCSc2ccccc2)nc(N)nc1-c1ccco1` [Example 302, 2-Amino-4-furan-2-yl-6-(2-phenylsulfanyl-ethylamino)-pyrimidine-5-carbonitrile]: the Ki was 7.76 nM.

As to `N#Cc1c(NCC2CCc3ccccc3N2)nc(N)nc1-c1ccco1` (racemic) [Example 299, (RS)-2-Amino-4-furan-2-yl-6-[(1,2,3,4-tetrahydro-quinolin-2-ylmethyl)-amino]-pyrimidine-5-carbonitrile], the Ki was 6.31 nM.
